The subject of series [1] is RPMI-8226. Nature of the series: Antiproliferative activity against human RPMI-8226 cells assessed as inhibition of cell proliferation incubated for 48 hrs by CCK8 assay. Conditions: RPMI-8226, 48 h. The format is functional, cell-based. Background: Tetrazolium assays rely on reduction of a dye to a coloured formazan, in cell work by metabolically active cells.
Series [2] has as its system U-266. The series can be described thus: Antiproliferative activity against human U-266 cells assessed as inhibition of cell proliferation incubated for 48 hrs by CCK8 assay. The format is functional, cell-based. Conditions: U-266, 48 h.
For series [3], the system named is MM1.S. Nature of the series: Antiproliferative activity against human MM1.S cells assessed as inhibition of cell proliferation incubated for 48 hrs by CCK8 assay. The format is functional, cell-based.
The nature of series [4]: Cytotoxicity against human L02 cells assessed as inhibition of cell proliferation incubated for 48 hrs by CCK8 assay. The format is toxicity, cell-based.
Series [5] has as its system RPMI-8226. Nature of the series: Induction of apoptosis in human RPMI-8226 cells assessed as proportion of viable cells at 0.5 uM incubated for 24 hrs by AnnexinV-FITC/PI staining based flow cytometry (reference value: 84.71%). The format is functional, cell-based. In general terms: A flow cytometer gives signals particle by particle.
Series [6] relates to RPMI-8226. The series can be described thus: Induction of apoptosis in human RPMI-8226 cells assessed as proportion of early apoptotic cells at 0.5 uM incubated for 24 hrs by AnnexinV-FITC/PI staining based flow cytometry (reference value: 10.63%). The format is functional, cell-based.
Series [7] concerns RPMI-8226. Nature of the series: Induction of apoptosis in human RPMI-8226 cells assessed as proportion of late apoptotic cells at 0.5 uM incubated for 24 hrs by AnnexinV-FITC/PI staining based flow cytometry (reference value: 4.18%). The format is functional, cell-based.
In series [8] the test system is RPMI-8226. Nature of the series: Induction of apoptosis in human RPMI-8226 cells assessed as proportion of necrotic cells at 0.5 uM incubated for 24 hrs by AnnexinV-FITC/PI staining based flow cytometry (reference value: 0.49%). The format is functional, cell-based.
For series [9], the system named is RPMI-8226. Nature of the series: Induction of apoptosis in human RPMI-8226 cells assessed as proportion of viable cells at 2.5 uM incubated for 24 hrs by AnnexinV-FITC/PI staining based flow cytometry (reference value: 84.71%). The format is functional, cell-based.
Series [10] relates to RPMI-8226. Nature of the series: Induction of apoptosis in human RPMI-8226 cells assessed as proportion of early apoptotic cells at 2.5 uM incubated for 24 hrs by AnnexinV-FITC/PI staining based flow cytometry (reference value: 10.63%). The format is functional, cell-based.
Series [11] deals with RPMI-8226. Nature of the series: Induction of apoptosis in human RPMI-8226 cells assessed as proportion of late apoptotic cells at 2.5 uM incubated for 24 hrs by AnnexinV-FITC/PI staining based flow cytometry (reference value: 4.18%). The format is functional, cell-based.
In series [12] the test system is RPMI-8226. Nature of the series: Induction of apoptosis in human RPMI-8226 cells assessed as proportion of necrotic cells at 2.5 uM incubated for 24 hrs by AnnexinV-FITC/PI staining based flow cytometry (reference value: 0.49%). The format is functional, cell-based.
In series [13] the test system is RPMI-8226. The series can be described thus: Induction of cell cycle arrest in human RPMI-8226 cells assessed as proportion of cells at G1 phase at 2.5 uM incubated for 24 hrs by PI staining based flow cytometry (reference value: 33.5%). The format is functional.
Series [14] relates to RPMI-8226. Nature of the series: Induction of cell cycle arrest in human RPMI-8226 cells assessed as proportion of cells at S phase at 2.5 uM incubated for 24 hrs by PI staining based flow cytometry (reference value: 46.7%). The format is functional.
Series [15] relates to RPMI-8226. Nature of the series: Induction of cell cycle arrest in human RPMI-8226 cells assessed as proportion of cells at G2/M phase at 2.5 uM incubated for 24 hrs by PI staining based flow cytometry (reference value: 19.8%). The format is functional.
The subject of series [16] is RPMI-8226. Nature of the series: Antitumor activity against human RPMI-8226 cells xenografted in NCG mouse assessed as T/C ratio at 50 ug administered intratumorally every 2 days by vernier caliper analysis. The format is functional. Conditions: dose 50 µg; route it(Intratumoral). (In general: In xenograft studies the graft and the host belong to different species.)

For series [17], the system named is RPMI-8226. Nature of the series: Antitumor activity against human RPMI-8226 cells xenografted in NCG mouse assessed as tumor growth inhibition at 50 ug administered intratumorally every 2 days by vernier caliper analysis. The format is functional. Conditions: dose 50 µg; route it(Intratumoral).
Series [18] can be described thus: Toxicity in NCG mouse xenografted with human RPMI-8226 cells assessed as body weight loss at 50 ug administered intratumorally every 2 days. As to conditions: in vivo, other, 48 h, route it(Intratumoral), dose 50 µg.
Series [19] is described as follows: Toxicity in NCG mouse xenografted with human RPMI-8226 cells assessed as animal's death at 50 ug administered intratumorally every 2 days. Conditions: in vivo, other, 48 h, route it(Intratumoral), dose 50 µg.
Series [20] can be described thus: Toxicity in NCG mouse xenografted with human RPMI-8226 cells assessed as weakness at 50 ug administered intratumorally every 2 days. Conditions: in vivo, other, 48 h, route it(Intratumoral), dose 50 µg.

Calls of active or inactive are those of the source. No cut-off for these calls is given here.

With `O=C(CCCCCCNC(=O)c1cnc(N(c2ccccc2)c2ccccc2Cl)nc1)NO` [CITARINOSTAT], the half-maximal inhibitory concentration (IC50) (commonly the concentration needed to halve the response being measured) worked out at 3.5 µM in [1], 4.3 µM in series [2] and 2 µM in [3]. Also, the IC50 at 48 h in series [4] came out at 15.2 µM. Further, the result in series [5], in [6], in [7], in series [8], in series [9] and in series [10] was Active. The outcome in series [11] and in series [12] was Active. Besides, the Activity in series [13] was 32.7%; in series [14] it was 44.7%; in series [15], 22.6%; in [18], “Non-Toxic”; in series [19], “Toxic”; in [20], “Toxic”. Besides, the T/C (in general, the result in the treated group divided by that in the control group, in per cent) in series [16] was determined as 61%. In addition, the TGI (commonly how far tumour growth fell short of that in controls) in series [17] turned out to be 46%.

For the origin of these results see ChEMBL document CHEMBL5346971, “Discovery of the First Irreversible HDAC6 Isoform Selective Inhibitor with Potent Anti-Multiple Myeloma Activity” (J Med Chem, 2023).
